Key:
Plasmopara viticola = assay: Control of Plasmopara viticola (downy mildew) on detached grapevine leaves, ED90 by Probit analysis, synergy by Wadley method; format: in vivo; conditions: detached grape leaves, spray before inoculation, 7-10 days after inoculation
Procedure: (§1) A synergistic effect exists whenever the action of an active ingredient combination is greater than the sum of the actions of the individual components. The Wadley Method is well-known method for determining whether synergy exists. In the Wadley Method, synergistic activity is determined from dose, response curves. With this method, the efficacy of the active ingredient (“a.i.”) is determined by comparing the degree of fungal attack on treated plants with that on untreated, similarly inoculated and incubated check plants. Each a.i. is generally tested at multiple (e.g., six) concentrations and dose response curves are generated. The dose response curves are used to establish the ED90 (i.e., estimated concentration required to produce 90% killing of fungi) of the individual compounds as well as of the combinations (ED90observed). The experimentally found values of the mixture at a given weight ratio are compared with the values that would have been found where only a complementary efficacy of the components was present (ED90 (A+B) expected). The ED90 (A+B) expected is generally calculated according to Wadley (Levi et al., EPPO-Bulletin 16, 1986, 651-657) or (Wadley, F. M., U.S. Dep. Agric., Agric. Res. Adm., Bur. Entomol. And Plant Quar. ET-223, 1945, 8) as follows:
(§2) wherein a and b are the weight ratios of the compounds A and B in the mixture and the indexes (A), (B) and (A+B) refer to the observed ED90values of the compounds A, B or the A+B mixture thereof. The ratio ED90 (A+B)expected/ED90 (A+B)observed expresses the level of the synergistic factor (SF).
A trial was conducted to in order to estimate the synergistic interaction between three fungicides in controlling the oomycete, Plasmopara viticola, the downy mildew causal agent, in grapevines.
Commercially available compositions of dimethomorph (Sphinx 50 SC), folpet (Folpan 80 WDG) and fosetyl-Al (Aliette 80 WDG), as well as 80 wt. %, WDG composition comprising a combination of dimethomorph, folpet and fosetyl-Al (mixed at a weight ratio of 1:5:10) were suspended in water, diluted to a series of concentrations in water and sprayed onto the lower leaf surface of detached grape leaves to initial run off.
Two cultivars of grapevines (Vitis vinifera) were used: Carinian and Merlo, both susceptible to P. viticola. Grafted Carinian plants were grown in pots in the greenhouse whereas Merlo vines were grown in the field. Plants were regularly sprayed with appropriate fungicides to protect them against powdery mildew (Uncinulla necator). In total, five experiments were conducted, three with Carinian and two with Merlo.
The 3rd and the 4th leaf from top of a branch were detached, sprayed on lower leaf surface with a fungicide, three leaves per fungicide per concentration per cultivar, and placed lower surface uppermost on moist filter paper in a plastic tray (70×50×5 cm). Normally, one tray served for one cultivar and one fungicide and contained 27 leaves (21 leaves treated with 7 doses of a fungicide+6 control untreated leaves).
Trays with the sprayed leaves were placed in a ventilated hood for about one hour until the spray droplets dried off and thereafter were inoculated with the pathogen.
An isolate of P. viticola was propagated on detached leaves of Carinian by repeated inoculations. Sporangia were harvested from freshly sporulating leaves into ice-cold distilled water, their concentration adjusted to 1×10^5 sporangia/ml. Sporangial suspension was sprayed onto the lower surface of the treated and control leaves laying in the trays. Trays were thereafter wrapped with cellophane bags, kept at 15° C. in the dark for 20 h and then at 20° C. under 14 h light photoperiod. At 7-10 days after inoculation, disease development was recorded by visual estimation of the leaf area occupied with sporophores and spores of P. viticola.
Mean sporulating leaf area was then calculated for each treatment (n=3, n for control=6). A mean value was calculated for all four controls in an experiment. […]

[1] = test system: DMM-resistant isolates of Pseudoperonospora cubensis; assay: Control of DMM-resistant isolates of Pseudoperonospora cubensis on intact cucumber plants, ED90 and Wadley synergy; format: in vivo; conditions: for ED90 observed Trial 1: Trial 1, downy mildew lesions per leaf; for ED90 observed Trial 2: Trial 2, downy mildew lesions per leaf
Procedure: as §1, §2
A trial was conducted to estimate the synergistic interaction between three fungicides in controlling DMM-resistant isolates of P. cubensis, the causal agent of downy mildew in cucurbits.
Commercially available compositions of dimethomorph (Sphinx 50 SC), folpet (Folpan 80 WDG) and fosetyl-Al (Aliette 80 WDG), as well as 80 wt. %, WDG composition comprising a combination of dimethomorph, folpet and fosetyl-Al (mixed at a weight ratio of 1:5:10) were suspended in water, diluted to a series of concentrations in water, and sprayed initial run off.
Two isolates of P. cubensis were used. Intact, two-true leaf cucumber plants (n=2) were used for inoculation. Inoculation and incubation were conducted according to the description in example 1, except that sporangial concentration was adjusted to 2×103 sporangia/ml. Disease records were taken by counting the number of downy mildew lesions per leaf (n=4). Data analysis was done as described in Example 1.

SMILES	ED90 observed Trial 1 (Plasmopara viticola)	ED90 observed Trial 2 (Plasmopara viticola)	ED90 observed Trial 3 (Plasmopara viticola)	ED90 observed Trial 4 (Plasmopara viticola)	ED90 observed Trial 5 (Plasmopara viticola)	ED90 observed Trial 1 [1]	ED90 observed Trial 2 [1]
COc1ccc(C(=CC(=O)N2CCOCC2)c2ccc(Cl)cc2)cc1OC [Dimethomorph, dimethomorph]	2.42 µg/mL	1.81 µg/mL	0.91 µg/mL	3.95 µg/mL	2.25 µg/mL	701 µg/mL	424 µg/mL
O=C1c2ccccc2C(=O)N1SC(Cl)(Cl)Cl [Folpet, folpet]	65.8 µg/mL	30.6 µg/mL	57.1 µg/mL	61.8 µg/mL	39.8 µg/mL	254 µg/mL	81 µg/mL
CCO[PH](=O)O [Fosetyl-Al, fosetyl-Al]	936 µg/mL	1522 µg/mL	611 µg/mL	274 µg/mL	297 µg/mL	2088 µg/mL	508 µg/mL
